Results published in paper PMC4805777 (International Journal for Parasitology: Drugs and Drug …, 2016).

Test system: T. cruzi (Strain H1)
Assay: T. cruzi in vivo assay, second study
Parameters: species or system Trypanosoma cruzi
Conditions: BALB/c mice, 100 mg/kg/day orally, 21 days (method: 20 days)

## O=C(Cn1ccnc1[N+](=O)[O-])NCc1ccccc1 [Benznidazole]
  parasitemia, in words: undetectable
50-day study
  survival, in words: all the mice survived
